{"source": "patent US20200121616A1", "about": "“COMPOSITIONS COMPRISING CANNABIDIOL AND HYALURONIC ACID FOR TREATING INFLAMMATORY JOINT DISEASES” (BOL PHARMA LTD., priority 2015, published 2020)", "origin": "cited, not measured here"}
{"substance": "Hyaluronic acid", "values": [{"measurement": "pKa", "value": "about 2.8"}]}
